Test results published in ChEMBL document CHEMBL3044672, “N9- and N7-(Chloromethyl Phenymethyl)Chloropurine Derivatives from , '-Dichloroxylenes: Synthesis and Anticancer Activity” (2005).

Columns and labels:
Type in all cases: functional
CCRF-CEM = experiment: Cytotoxicity against Homo sapiens (human) CCRF-CEM cells after 48 hr by sulforhodamine B assay; conditions: for CC50: read-out: LC50 (the source's name)
COLO 205 = experiment: Cytotoxicity against Homo sapiens (human) COLO205 cells after 48 hr by sulforhodamine B assay; conditions: COLO 205, 48 h; for CC50: read-out: LC50 (the source's name)
NCI-H226 = experiment: Cytotoxicity against Homo sapiens (human) NCI-H226 cells after 48 hr by sulforhodamine B assay; conditions: NCI-H226, 48 h; for CC50: read-out: LC50 (the source's name)
A498 = experiment: Cytotoxicity against Homo sapiens (human) A498 cells after 48 hr by sulforhodamine B assay; conditions: A498, 48 h
OVCAR-4 = experiment: Cytotoxicity against Homo sapiens (human) OVCAR4 cells after 48 hr by sulforhodamine B assay; conditions: OVCAR-4, 48 h
K562 = experiment: Cytotoxicity against Homo sapiens (human) K562 cells after 48 hr by sulforhodamine B assay; conditions: K562, 48 h; for CC50: read-out: LC50 (the source's name)
UO-31 = experiment: Cytotoxicity against Homo sapiens (human) UO31 cells after 48 hr by sulforhodamine B assay; conditions: UO-31, 48 h
SW-620 = experiment: Cytotoxicity against Homo sapiens (human) SW620 cells after 48 hr by sulforhodamine B assay; conditions: SW-620, 48 h; for CC50: read-out: LC50 (the source's name)
NCI-H460 = experiment: Cytotoxicity against Homo sapiens (human) NCI-H460 cells assessed as cell growth at 10^-4 M after 48 hr by Alamar blue assay; conditions: NCI-H460, 48 h, read-out: Activity
HCT-15 = experiment: Cytotoxicity against Homo sapiens (human) HCT15 cells after 48 hr by sulforhodamine B assay; conditions: HCT-15, 48 h; for CC50: read-out: LC50 (the source's name)
MCF7 = experiment: Cytotoxicity against Homo sapiens (human) MCF7 cells after 48 hr by sulforhodamine B assay; conditions: MCF7, 48 h
BT-549 = experiment: Cytotoxicity against Homo sapiens (human) BT549 cells after 48 hr by sulforhodamine B assay; conditions: BT-549, 48 h
KM12 = experiment: Cytotoxicity against Homo sapiens (human) KM12 cells after 48 hr by sulforhodamine B assay; conditions: KM12, 48 h; for CC50: read-out: LC50 (the source's name)
SK-MEL-28 = experiment: Cytotoxicity against Homo sapiens (human) SK-MEL-28 cells after 48 hr by sulforhodamine B assay; conditions: SK-MEL-28, 48 h
HT-29 = experiment: Cytotoxicity against Homo sapiens (human) HT-29 cells after 48 hr by sulforhodamine B assay; conditions: HT-29, 48 h; for CC50: read-out: LC50 (the source's name)
RPMI-8226 = experiment: Cytotoxicity against Homo sapiens (human) RPMI8226 cells after 48 hr by sulforhodamine B assay; conditions: RPMI-8226, 48 h
SNB-75 = experiment: Cytotoxicity against Homo sapiens (human) SNB75 cells after 48 hr by sulforhodamine B assay; conditions: SNB-75, 48 h; for CC50: read-out: LC50 (the source's name)
NCI-H522 = experiment: Cytotoxicity against Homo sapiens (human) NCI-H522 cells after 48 hr by sulforhodamine B assay; conditions: NCI-H522, 48 h; for CC50: read-out: LC50 (the source's name)
OVCAR-8 = experiment: Cytotoxicity against Homo sapiens (human) OVCAR8 cells after 48 hr by sulforhodamine B assay; conditions: OVCAR-8, 48 h
HCT-116 = experiment: Cytotoxicity against Homo sapiens (human) HCT116 cells after 48 hr by sulforhodamine B assay; conditions: HCT-116, 48 h; for CC50: read-out: LC50 (the source's name)
U-251 = experiment: Cytotoxicity against Homo sapiens (human) U251 cells after 48 hr by sulforhodamine B assay; conditions: U-251, 48 h
OVCAR-3 = experiment: Cytotoxicity against Homo sapiens (human) OVCAR3 cells after 48 hr by sulforhodamine B assay; conditions: OVCAR-3, 48 h
SF-539 = experiment: Cytotoxicity against Homo sapiens (human) SF539 cells after 48 hr by sulforhodamine B assay; conditions: SF-539, 48 h
SF-268 = experiment: Cytotoxicity against Homo sapiens (human) SF268 cells assessed as cell growth at 10^-4 M after 48 hr by […] assay; conditions: SF-268, 48 h, read-out: Activity
SN12C = experiment: Cytotoxicity against Homo sapiens (human) SN12C cells after 48 hr by sulforhodamine B assay
PC-3 = experiment: Cytotoxicity against Homo sapiens (human) PC3 cells after 48 hr by sulforhodamine B assay; conditions: PC-3, 48 h
MDA-MB-435 = experiment: Cytotoxicity against Homo sapiens (human) MDA-MB-435 cells after 48 hr by sulforhodamine B assay; conditions: MDA-MB-435, 48 h

With `ClCc1ccc(Cn2cnc3nc(Cl)nc(Cl)c32)cc1` the GI50 (CCRF-CEM) was 14.8 µM, the TGI (CCRF-CEM) was 31.6 µM and the CC50 (CCRF-CEM) was 66.1 µM. It also gave a GI50 (COLO 205) of 17.4 µM, a TGI (COLO 205) of over 100 µM and a CC50 (COLO 205) of over 100 µM. The GI50 (NCI-H226) was 1230 nM, the TGI (NCI-H226) was 3.89 µM and the CC50 (NCI-H226) was 15.5 µM. For the same compound, the GI50 (A498) was 11.2 µM, the LC50 (lethal concentration, 50% cell kill) (A498) was 49 µM and the TGI (A498) was 23.4 µM. The GI50 (OVCAR-4) was 2.08 µM, the TGI (OVCAR-4) was 4.16 µM and the GI50 (K562) was 3.31 µM. For the same compound, the TGI (K562) was over 100 µM, the CC50 (K562) was over 100 µM and the GI50 (UO-31) was 1.44 µM. For the same compound, the LC50 (concentration causing 50% net cell kill) (UO-31) was 5.62 µM, the TGI (UO-31) was 2.88 µM and the GI50 (SW-620) was 13.2 µM. It also gave a TGI (SW-620) of 28.8 µM, a CC50 (SW-620) of 64.6 µM and a growth at 100 µM (NCI-H460) of 0%. It also gave a GI50 (HCT-15) of 1810 nM, a TGI (HCT-15) of 3.54 µM and a CC50 (HCT-15) of 6.76 µM. It also gave a GI50 (MCF7) of 4160 nM, an LC50 (concentration killing 50% of cells) (MCF7) of 83.2 µM and a TGI (MCF7) of 17 µM. For the same compound, the GI50 (BT-549) was 1.86 µM, the LC50 (50% lethal concentration) (BT-549) was 6.45 µM and the TGI (BT-549) was 3.46 µM. The GI50 (KM12) was 260 nM, the TGI (KM12) was 670 nM and the CC50 (KM12) was 2.45 µM. The GI50 (SK-MEL-28) was 2180 nM, the LC50 (concentration killing 50% of cells) (SK-MEL-28) was over 100 µM and the TGI (SK-MEL-28) was 5.12 µM. The GI50 (HT-29) was 3.54 µM, the TGI (HT-29) was over 100 µM and the CC50 (HT-29) was over 100 µM. For the same compound, the GI50 (RPMI-8226) was 1650 nM, the TGI (RPMI-8226) was 28.2 µM and the CC50 (RPMI-8226; read-out: LC50 (the source's name)) was 97.7 µM. For the same compound, the GI50 (SNB-75) was 2080 nM, the TGI (SNB-75) was 3.98 µM and the CC50 (SNB-75) was 7.41 µM. For the same compound, the GI50 (NCI-H522) was 1.77 µM, the TGI (NCI-H522) was 4.57 µM and the CC50 (NCI-H522) was 38 µM. The GI50 (OVCAR-8) was 1.99 µM, the LC50 (concentration killing 50% of cells) (OVCAR-8) was 8.31 µM and the TGI (OVCAR-8) was 4.07 µM. For the same compound, the GI50 (HCT-116) was 120 nM, the TGI (HCT-116) was 1240 nM and the CC50 (HCT-116) was over 100 µM. It also gave a GI50 (U-251) of 1770 nM, an LC50 (concentration killing 50% of cells) (U-251) of 5.75 µM and a TGI (U-251) of 3.23 µM. The GI50 (OVCAR-3) was 300 nM, the LC50 (OVCAR-3) was 2.51 µM and the TGI (OVCAR-3) was 720 nM. For the same compound, the GI50 (SF-539) was 1.86 µM, the LC50 (concentration killing 50% of cells) (SF-539) was 5.88 µM and the TGI (SF-539) was 3.31 µM. The growth at 100 µM (SF-268) was 0%, the GI50 (SN12C) was 1.86 µM and the LC50 (50% lethal concentration) (SN12C) was 6.6 µM. It also gave a TGI (SN12C) of 3.46 µM, a GI50 (PC-3) of 17.8 µM and an LC50 (concentration causing 50% cell kill) (PC-3) of 75.9 µM. For the same compound, the TGI (PC-3) was 37.1 µM, the GI50 (MDA-MB-435) was 1.62 µM and the LC50 (MDA-MB-435) was 5.75 µM. The TGI (MDA-MB-435) was 3.01 µM.

Compound `ClCc1ccc(Cn2cnc3c(Cl)nc(Cl)nc32)cc1` has a GI50 (CCRF-CEM) of 1.95 µM, a TGI (CCRF-CEM) of 4.57 µM and a CC50 (CCRF-CEM) of 14.1 µM. The GI50 (COLO 205) was 3.47 µM, the TGI (COLO 205) was over 100 µM and the CC50 (COLO 205) was over 100 µM. For the same compound, the GI50 (NCI-H226) was 3550 nM, the TGI (NCI-H226) was 9.55 µM and the CC50 (NCI-H226) was 33.9 µM. It also gave a GI50 (A498) of 12 µM, an LC50 (lethal concentration, 50% cell kill) (A498) of 52.5 µM and a TGI (A498) of 25.1 µM. The GI50 (OVCAR-4) was 4.9 µM, the LC50 (concentration killing 50% of cells) (OVCAR-4) was 61.7 µM and the TGI (OVCAR-4) was 18.6 µM. The GI50 (K562) was 23.4 µM, the TGI (K562) was 66.1 µM and the CC50 (K562) was over 100 µM. For the same compound, the GI50 (UO-31) was 19.5 µM, the LC50 (concentration causing 50% net cell kill) (UO-31) was 66.1 µM and the TGI (UO-31) was 35.5 µM. It also gave a GI50 (SW-620) of 3.8 µM, a TGI (SW-620) of 17.4 µM and a CC50 (SW-620) of 56.2 µM. For the same compound, the growth at 100 µM (NCI-H460) was 0%, the GI50 (HCT-15) was 1860 nM and the TGI (HCT-15) was 3.8 µM. The CC50 (HCT-15) was 7.59 µM, the GI50 (MCF7) was 1740 nM and the LC50 (concentration killing 50% of cells) (MCF7) was over 100 µM. It also gave a TGI (MCF7) of 3.98 µM, a GI50 (BT-549) of 15.8 µM and an LC50 (50% lethal concentration) (BT-549) of 56.2 µM. For the same compound, the TGI (BT-549) was 29.5 µM, the GI50 (KM12) was 1820 nM and the TGI (KM12) was 3240 nM. The CC50 (KM12) was 5.75 µM, the GI50 (SK-MEL-28) was 2690 nM and the LC50 (concentration killing 50% of cells) (SK-MEL-28) was 46.8 µM. The TGI (SK-MEL-28) was 6.92 µM, the GI50 (HT-29) was 2.88 µM and the TGI (HT-29) was over 100 µM. For the same compound, the CC50 (HT-29) was over 100 µM, the GI50 (RPMI-8226) was 1740 nM and the TGI (RPMI-8226) was 3.8 µM. It also gave a GI50 (SNB-75) of 3160 nM, a TGI (SNB-75) of 9.33 µM and a CC50 (SNB-75) of 45.7 µM. For the same compound, the GI50 (NCI-H522) was 22.4 µM, the TGI (NCI-H522) was 46.8 µM and the CC50 (NCI-H522) was 97.7 µM. The GI50 (OVCAR-8) was 19.9 µM, the LC50 (concentration killing 50% of cells) (OVCAR-8) was 72.4 µM and the TGI (OVCAR-8) was 38 µM. For the same compound, the GI50 (HCT-116) was 1700 nM, the TGI (HCT-116) was 3630 nM and the CC50 (HCT-116) was 7.59 µM. For the same compound, the GI50 (U-251) was 2040 nM, the LC50 (concentration killing 50% of cells) (U-251) was 7.41 µM and the TGI (U-251) was 3.89 µM. It also gave a GI50 (OVCAR-3) of 2000 nM, an LC50 (OVCAR-3) of 9.55 µM and a TGI (OVCAR-3) of 4370 nM. For the same compound, the GI50 (SF-539) was 17 µM, the LC50 (concentration killing 50% of cells) (SF-539) was 56.2 µM and the TGI (SF-539) was 30.9 µM. The growth at 100 µM (SF-268) was 0%, the GI50 (SN12C) was 7.24 µM and the LC50 (50% lethal concentration) (SN12C) was 51.3 µM. For the same compound, the TGI (SN12C) was 20.9 µM, the GI50 (PC-3) was 2.69 µM and the LC50 (concentration causing 50% cell kill) (PC-3) was 45.7 µM. The TGI (PC-3) was 7.24 µM, the GI50 (MDA-MB-435) was 12.6 µM and the LC50 (MDA-MB-435) was 50.1 µM. For the same compound, the TGI (MDA-MB-435) was 25.1 µM.
